Measured values as given in US20160122313A1, “COMPOSITIONS AND METHODS FOR THE TREATMENT OF DIABETES” (priority 2014, published 2016).

Key:
[1] = system: Diabetic Rats; test: Effect on serum glucose, body weight and HbA1c in STZ/nicotinamide-induced type 2 diabetic rats, 4 weeks treatment; format: in vivo, rat; conditions: diabetic rats (STZ 65 mg/kg + NIC 150 mg/kg i.p.), 30 mg/kg/day; for Glucose: serum glucose
Protocol: (§1) Effect of Nateglinide alone and Formula I (1-2) on Serum Glucose, Body Weights and HbAlc in Non-Diabetic and Diabetic Rats:
Type 2 Diabetes was induced in overnight fasted rats by a single intraperitoneal injection of 65 mg/kg Streptozotocin (STZ), 15 min after the i.p administration of 150 mg/kg of Nicotinamide (NIC). After 7 days following STZ and NIC administration, blood was collected from tail vein and serum samples were analyzed for blood glucose. Animals showing fasting blood glucose higher than 300 mg/dl were considered as diabetic and were used for the study.
(§2) Methods: Animals were divided in to following groups, each group containing 6 animals and the treatment period for whole study was 4 weeks.
Group 4: Diabetic control, single injection of STZ (65 mg/kg, i.p) and NIC (150 mg/kg, i.p, DB-CON).
Group 5: Diabetic rats (DB) treated with NAT (30 mg/kg/day, DB-NAT).
Group 6: Diabetic rats treated with Formula I (1-2) (30 mg/kg/day, p.o)
(§3) Effect of Nateglinide (30 mg/kg/day, p.o) and Formula I (30 mg/kg/day, p.o) on Changes in Body Weight, Serum Glucose and HbAlc Level in Nondiabetic and Diabetic Rats.

[2] = system: Non-Diabetic Rats; test: Effect on serum glucose, body weight and HbA1c in nondiabetic rats, 4 weeks treatment; format: in vivo, rat; conditions: 30 mg/kg/day p.o.; for Glucose: serum glucose
Protocol: as §1, §2
Group 1: Nondiabetic (ND) control, received CMC as vehicle (1 ml/kg/day, p.o, NDCON).
Group 2: Nondiabetic group treated with Nateglinide (NAT) (30 mg/kg/day, p.o, ND-NAT).
Group 3: Nondiabetic group treated with Formula I (1-2) (30 mg/kg/day, p.o)
as §3

| SMILES | (%, HbA1c) [1] | Glucose [1] [mg/dL] | (%, HbA1c) [2] | Body weight (gm) [2] | Glucose [2] [mg/dL] | Body weight (gm) [1] |
| --- | --- | --- | --- | --- | --- | --- |
| CC(C)[C@H]1CCC[C@H](C(=O)N[C@H](Cc2ccccc2)OC(=O)OC(=O)CCCC[C@]2(C)CCSS2)C1 [FORMULA I] | 4.01 +/− 0.72% | 99.1 ± 12.1 | 4.21 +/− 0.67% | 265.1 +/− 9.3 gm | 77.87 ± 9.67 | – |
| CC(C)[C@H]1CC[C@H](C(=O)N[C@H](Cc2ccccc2)C(=O)O)CC1 [NAT, Nateglinide] | 6.78 +/− 0.98% | 170.7 ± 13.21 | 5.04 +/− 0.30% | 224.0 +/− 7.23 gm | 70.21 ± 5.6 | 219.8 +/− 50.28 gm |
